Assay results: ChEMBL document CHEMBL4382249, “1-Arylsulfonyl indoline-benzamides as a new antitubulin agents, with inhibition of histone deacetylase” (Eur J Med Chem, 2019); call rule not given here

How the values were obtained:
[1] = target: T1, Histone deacetylase 7 (Homo sapiens, UniProt Q8WUI4); experiment: Inhibition of human HDAC7 using fluorogenic p53 (379-382) peptide RHKK(Ac) as substrate by fluorescence assay
T1 sequence (Q8WUI4 whole entry): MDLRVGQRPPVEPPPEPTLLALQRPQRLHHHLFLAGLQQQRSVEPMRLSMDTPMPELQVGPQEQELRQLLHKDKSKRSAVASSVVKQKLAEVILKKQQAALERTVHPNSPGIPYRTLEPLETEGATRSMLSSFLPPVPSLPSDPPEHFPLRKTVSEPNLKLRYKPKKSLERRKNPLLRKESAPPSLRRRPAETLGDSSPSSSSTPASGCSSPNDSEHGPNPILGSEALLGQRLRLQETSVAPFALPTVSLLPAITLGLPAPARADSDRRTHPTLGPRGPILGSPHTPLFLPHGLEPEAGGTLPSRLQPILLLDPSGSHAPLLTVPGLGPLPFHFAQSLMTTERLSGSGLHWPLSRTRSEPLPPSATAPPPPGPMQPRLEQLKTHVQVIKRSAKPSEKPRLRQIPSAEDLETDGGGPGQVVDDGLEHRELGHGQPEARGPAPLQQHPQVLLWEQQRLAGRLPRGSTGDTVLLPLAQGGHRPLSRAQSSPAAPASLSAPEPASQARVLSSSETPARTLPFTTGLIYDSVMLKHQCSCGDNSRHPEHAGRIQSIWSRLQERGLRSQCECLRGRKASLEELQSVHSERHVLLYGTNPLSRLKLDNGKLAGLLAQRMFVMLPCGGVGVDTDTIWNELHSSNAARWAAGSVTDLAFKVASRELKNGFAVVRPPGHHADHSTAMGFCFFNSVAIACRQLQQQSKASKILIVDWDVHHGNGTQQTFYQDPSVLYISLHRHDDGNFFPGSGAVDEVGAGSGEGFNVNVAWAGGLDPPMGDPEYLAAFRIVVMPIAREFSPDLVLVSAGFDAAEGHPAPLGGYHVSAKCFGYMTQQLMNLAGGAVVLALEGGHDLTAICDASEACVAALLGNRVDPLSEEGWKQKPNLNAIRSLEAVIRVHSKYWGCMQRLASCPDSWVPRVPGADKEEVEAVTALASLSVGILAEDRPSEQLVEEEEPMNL

[2] = target: Histone deacetylase 2 (Homo sapiens, UniProt Q92769); experiment: Inhibition of human HDAC2 using RHKKAc as substrate by fluorescence assay
Chain of Histone deacetylase 2 (Q92769 whole entry): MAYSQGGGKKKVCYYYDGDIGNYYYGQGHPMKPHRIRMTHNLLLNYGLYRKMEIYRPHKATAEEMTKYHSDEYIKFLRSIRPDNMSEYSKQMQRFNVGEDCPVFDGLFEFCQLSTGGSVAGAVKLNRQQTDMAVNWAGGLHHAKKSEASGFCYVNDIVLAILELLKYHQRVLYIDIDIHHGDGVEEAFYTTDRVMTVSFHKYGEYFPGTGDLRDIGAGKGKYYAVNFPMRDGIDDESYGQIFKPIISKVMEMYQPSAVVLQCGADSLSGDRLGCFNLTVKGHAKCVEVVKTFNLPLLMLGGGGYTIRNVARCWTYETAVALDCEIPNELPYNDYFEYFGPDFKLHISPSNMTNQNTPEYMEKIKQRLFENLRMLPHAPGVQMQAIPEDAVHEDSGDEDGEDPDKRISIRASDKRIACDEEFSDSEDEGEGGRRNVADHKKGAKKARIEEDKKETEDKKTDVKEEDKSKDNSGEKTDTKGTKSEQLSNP

IC50 [1]: Not Active
IC50 [2]: 662 nM
Structure (SMILES): COc1ccc(S(=O)(=O)N2CCc3cccc(NCc4ccc(C(=O)Nc5ccccc5N)cc4)c32)cc1
